Data on three molecules can be found in patent US20260266828A1, “BIOMARKERS FOR PREDICTING CANCER TREATMENT EFFICACY” (Arcus Biosciences, Inc., priority 2023, published 2026).

For series [1], the system named is first line (1L) metastatic NSCLC. In words: Real-world progression free survival analysis by CD155 gene expression, de-identified health records. The series is classed as in vivo, human. An excerpt:
This example retrospectively evaluated the predictive value of CD155 expression for a clinical outcome using real-world data. […] Real-world progression free survival (rwPFS) is defined in this study as the time from treatment initiation until the first occurrence of progressive disease (PD) or death up to the end date of the same line of therapy. […] Otherwise, patients were censored at the last known follow up time. rwPFS is right censored at 36 months. The analysis was performed using de-identified health records of first line (1L) metastatic NSCLC patients treated with chemotherapy only, treated with pembrolizumab monotherapy, or treated with chemotherapy and pembrolizumab. A filter was applied to select for records where biopsies were obtained ≤12 months prior to the first dose of treatment. Records were excluded if the patient had EGF or ALK alterations.
The health records for each patient included information such as sex, race, smoking status, biopsy site, stage at time of diagnosis, subtype of lung cancer (adenocarcinoma or squamous cell carcinoma), tumor purity, PD-L1 expression, treatment (chemotherapy, pembrolizumab, or chemotherapy+pembrolizumab), clinical outcome, etc., as well as gene expression data for a number of targets (e.g., TIGIT, CD155, CD73). Chemotherapy for adenocarcinomas was cisplatin or carboplatin+pemetrexed. Chemotherapy for squamous cell carcinomas was either carboplatin and paclitaxel or nab-paclitaxel. Gene expression was quantified from RNA-seq data as transcript per million (tpm). Kaplan-Meier models were performed by gene and according to the following breakdowns: NSCLC subtype (all; adenocarcinoma only; squamous cell carcinoma only), PD-L1 expression (all; <1% TPS; 1-49% TPS; ≥50% TPS), and treatment (chemotherapy only, pembrolizumab only, chemotherapy and pembrolizumab). Results presented as Kaplan-Meier (KM) plots splitting high and low gene expressors into different groups, whereby high gene expression was defined as expression equal to or greater than a cut-off value determined by one of several threshold methodologies (e.g., median, 1st tertile (1st third vs last two thirds), 2nd tertile (two thirds vs. last third) and MaxStat (an outcome-oriented method providing a value of a cutpoint that corresponds to the most significant relation with outcome). Cox Proportional-Hazards tests were used to assess the effect of gene expression as a continuous variable, and hazard ratios were provided with each KM plot using the low gene expressor group as a reference.

Series [2] deals with MC38 cells. Nature of the series: In vitro oxaliplatin treatment of MC38 cells, flow cytometry of PD-L1 and CD155. The series is classed as cell-based, mouse. The following applies: dying cells, ≥1 μM, 22 h.
Protocol: (§1) Lines and error represent the mean±standard deviation (SD) of biological triplicates. […] In FIG. 5B and FIG. 5C, lines and error represent the mean±SD of biological duplicates.
(§2) For flow cytometry, MC38 cells were plated in supplemented RPMI medium at 1×10^5 cells/well in a 12-well tissue culture plate. For CellTiter-Glo (Promega) analysis, cells were plated in supplemented RPMI medium at 5×10^3 cells/well in a 96-well white flat-bottom tissue culture plate. […] Data were normalized to PBS treated cells. For flow cytometry, cells were harvested using a cell scraper, and transferred into a 96-well round-bottom plate for staining. Cells were washed, incubated with live-dead aqua and anti-mouse CD16/CD32 Fc block at RT followed by cell surface staining with anti-mouse PD-L1 BV711 (clone MIH4, BD Biosciences) and anti-mouse CD155 BUV395 (clone 3F1, BD Biosciences) at 4° C. Cells were washed, fixed with IC fixation buffer (Invitrogen) at RT, washed again, and resuspended in PBS for flow cytometry.
Series [3] deals with MC38 cells. The following applies: 1 μM, 72 hours.
Protocol: as §1, §2
The test system of series [4] is MC38 tumors. Nature of the series: Flow cytometry phenotyping of MC38 tumors and tdLN after treatment. Format: in vivo, mouse. The note with it: three days after the first OXA exposure. The method, then:
Methods—Mouse tumor-infiltrating lymphocyte and lymph node phenotyping. MC38 tumors were minced with scissors and dissociated with tumor digestion buffer [RPMI 1640 supplemented with 20% FBS, 0.25 mg/mL Collagenase D (Roche), and 100 KUnits/mL Type IV DNase I (Sigma-Aldrich)]. Single-cell tumor suspensions were passed through a 70 μm cell strainer and washed. Inguinal lymph nodes were collected from the same side as the tumor (tumor-draining lymph node, tdLN), minced, passed through a 70 μm cell strainer and washed. A total of 1×10^6 tumor or lymph node cells per well were incubated at room temperature (RT) with live-dead NIR (Invitrogen) and anti-mouse CD16/CD32 Fc block (BD Biosciences). For p15E tetramer staining, cells were washed and incubated with tetramer at RT. Cells were stained for surface and intracellular markers and analyzed by flow cytometry as indicated above.
In vivo experiments were performed at Arcus Biosciences in accordance with federal, state, and institutional guidelines and were approved by Arcus Biosciences' Institutional Animal Care and Use Committee. Female 6-8 week old C57BL/6J mice were purchased from Charles River Laboratories. Mice were injected subcutaneously on the right flank with 1×10^6 MC38 cells in 100 μL PBS. Once tumors were established (sized indicated in figure legends), mice were randomized into groups based on tumor size distribution. […] The dosing regimens for anti-PD-1 and anti-TIGIT were determined via receptor occupancy (RO) assays using commercially available a competitive anti-TIGIT antibody (clone GIGD7), a non-competitive PD-1 antibody (clone J43) as well as direct detection of both anti-TIGIT and anti-PD-1 via secondary antibody (Jackson Immunoresearch anti-mouse IgG, Fcγ subclass 2a specific). The dosing regimen for FTY720 was determined in naïve C57BL/6 females by examining lymphocyte frequencies and numbers in the blood 24 h after dosing. Tumor volume was monitored with digital calipers and volume was calculated using the formula: (Length×Width^2)/2. […]

Series [5] concerns the target T1, FcγR-IIIA (V158 high-affinity variant) (Homo sapiens, UniProt P08637, F176V).
T1 construct: expressed in transfected cells
Also noted: dose or concentration left out as unconfirmed. The following applies: cited from earlier work.

For series [6], the system named is Jurkat cell line stably overexpressing human TIGIT. The following applies: increasing concentrations up to 33 nM; cited from earlier work.
The test system of series [7] is FcγR isotypes I, IIA, JIB, IIIA, and IIIB. Also on record: dose or concentration left out as unconfirmed. The following applies: compared with wild-type IgG1 control antibody; cited from earlier work.

T1 sequence (P08637 17-254 F176V): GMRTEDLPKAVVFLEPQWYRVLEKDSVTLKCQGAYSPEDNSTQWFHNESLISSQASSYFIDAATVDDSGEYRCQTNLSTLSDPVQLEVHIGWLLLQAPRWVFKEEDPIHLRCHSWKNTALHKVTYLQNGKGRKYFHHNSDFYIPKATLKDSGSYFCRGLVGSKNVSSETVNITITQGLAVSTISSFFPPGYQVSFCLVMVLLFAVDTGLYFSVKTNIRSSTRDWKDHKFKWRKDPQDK

Consider pembrolizumab, for which the “Median real-world progression-free survival (rwPFS)” value is 5.4 mo in series [1] (CD155 High, threshold method Median, PD-L1 TPS 1-49%); 13.8 mo in series [1] (CD155 High, threshold method Median, PD-L1 TPS <1%); 7.67 mo in series [1] (CD155 High, threshold method Median, PD-L1 TPS All); 8.53 mo in series [1] (CD155 High, threshold method Median, PD-L1 TPS ≥50%); 4.63 mo in series [1] (CD155 High, threshold method q33, PD-L1 TPS 1-49%); 8.1 mo in series [1] (CD155 High, threshold method q33, PD-L1 TPS <1%). Also, the “Median real-world progression-free survival (rwPFS)” value was determined as 8.07 mo in series [1] (CD155 High, threshold method q33, PD-L1 TPS All); 8.63 mo in series [1] (CD155 High, threshold method q33, PD-L1 TPS ≥50%); 3.93 mo in series [1] (CD155 High, threshold method q67, PD-L1 TPS 1-49%); 13.8 mo in series [1] (CD155 High, threshold method q67, PD-L1 TPS <1%); 7.03 mo in series [1] (CD155 High, threshold method q67, PD-L1 TPS All); 7.23 mo in series [1] (CD155 High, threshold method q67, PD-L1 TPS ≥50%). The “Median real-world progression-free survival (rwPFS)” value is recorded as 6.2 mo in series [1] (CD155 Low, threshold method Median, PD-L1 TPS 1-49%); 8.1 mo in series [1] (CD155 Low, threshold method Median, PD-L1 TPS <1%); 10.3 mo in series [1] (CD155 Low, threshold method Median, PD-L1 TPS All); 14.1 mo in series [1] (CD155 Low, threshold method Median, PD-L1 TPS ≥50%); 9.67 mo in series [1] (CD155 Low, threshold method q33, PD-L1 TPS 1-49%); 8.1 mo in series [1] (CD155 Low, threshold method q33, PD-L1 TPS <1%). Further, the “Median real-world progression-free survival (rwPFS)” value turned out to be 13.3 mo in series [1] (CD155 Low, threshold method q33, PD-L1 TPS All); 17.1 mo in series [1] (CD155 Low, threshold method q33, PD-L1 TPS ≥50%); 7.1 mo in series [1] (CD155 Low, threshold method q67, PD-L1 TPS 1-49%); 8.1 mo in series [1] (CD155 Low, threshold method q67, PD-L1 TPS <1%); 9.67 mo in series [1] (CD155 Low, threshold method q67, PD-L1 TPS All); 11.7 mo in series [1] (CD155 Low, threshold method q67, PD-L1 TPS ≥50%).

Turning to `O=C1[O][Pt]2([NH][C@@H]3CCCC[C@H]3[NH]2)[O]C1=O` [OXA, oxaliplatin], in series [2], the “expression of PD-L1 and CD155 ligands” value is listed as “increased expression”. The cancer cell death in series [3] was approximately 100%. Moreover, in series [4], the “TCF-1 positivity in tumoral CD8+ T cells” value is “increase”, the intratumoral monocytes entry was “decreases” and the tumor neutrophils entry was “increase”.

B1: domvanalimab (antibody, chains of the INN, looked up, V domains shown)
VH: EVQLVESGGGLVQPGGSLRLSCAASGFTFSNFGMHWVRQAPGKGLEWVAFISSGSSSIYYADTVKGRFTISRDNAKNSLYLQMNSLRAEDTAVYYCARMRLDYYAMDYWGQGTMVTVSS
VL: DIQMTQSPSSLSASVGDRVTITCRASKSISKYLAWYQQKPGKAPKLLIYSGSTLQSGVPSRFSGSGSGTDFTLTISSLQPEDFATYYCQQHNEYPWTFGGGTKVEIK
notes: Fc-silent anti-TIGIT antibody with engineered IgG1 Fc
With B1, the “activity in FcγR-IIIA effector reporter bioassay” value in series [5] is “inactive”. Moreover, the complement dependent cytotoxicity result in series [6] is reported as “No cytotoxicity”. Further, the “binding to FcγR isotypes” value in series [7] was “no significant binding”.
